In patent US20150118229A1, “JAK1 SELECTIVE INHIBITOR AND USES THEREOF” (ABBVIE INC., priority 2013, published 2015):
Entries after “also recorded” stand apart in the source; their conditions may differ. Where two headings read alike, the source gives them in different places.

Assays:
[1] = Metabolic stability in hepatocytes, monkey; format: in vitro ADME; conditions: read-out: intrinsic clearance in hepatocytes (converted)
[2] = Plasma protein binding, dog; format: in vitro ADME
[3] = Plasma protein binding, monkey; format: in vitro ADME
CYP2C9 = CYP2C9 (Homo sapiens, UniProt P11712); experiment: CYP inhibition in human liver microsomes, CYP2C9
[4] = system: Balb/c 3T3 mouse fibroblasts; experiment: Neutral red uptake phototoxicity assay; format: cell-based
[5] = Human PK, single ascending dose Study M13-401; format: in vivo; conditions: for AUC(0-t) / AUC(0-inf): human, in vivo
[6] = Human PK in healthy Japanese and Chinese subjects, Study M13-543; format: in vivo; conditions: for AUC12/dose / Cmax/dose / Ctrough/Dose: Day 14, mean (% CV); for half-life / AUC / concentration at 14 day / AUC(0-t): human, plasma, oral; for AUC: read-out: AUC12; for concentration at 14 day: read-out: Ctrough; for AUC(0-t): mean (% CV)
Text: Two additional subjects were assigned to each dose level as placebo control.

[7] = Japanese, 6 & 24 mg single doses
[8] = 18 mg, Chinese, 18 mg BID, Day 14
[9] = 18 mg, Japanese, 18 mg BID, Day 14

Sequence of CYP2C9 (P11712 whole entry): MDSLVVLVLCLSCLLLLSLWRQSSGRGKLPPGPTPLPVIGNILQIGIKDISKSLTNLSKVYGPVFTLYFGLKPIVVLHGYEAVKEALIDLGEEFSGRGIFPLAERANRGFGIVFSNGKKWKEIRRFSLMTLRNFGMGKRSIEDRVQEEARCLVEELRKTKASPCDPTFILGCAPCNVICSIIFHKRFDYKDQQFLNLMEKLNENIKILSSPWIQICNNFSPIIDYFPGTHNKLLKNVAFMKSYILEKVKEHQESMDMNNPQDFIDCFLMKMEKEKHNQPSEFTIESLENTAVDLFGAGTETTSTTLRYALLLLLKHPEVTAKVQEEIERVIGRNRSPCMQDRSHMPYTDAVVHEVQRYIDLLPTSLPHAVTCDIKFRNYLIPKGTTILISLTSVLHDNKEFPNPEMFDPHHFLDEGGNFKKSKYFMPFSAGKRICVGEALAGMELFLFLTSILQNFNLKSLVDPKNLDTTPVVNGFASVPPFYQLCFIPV

CC[C@@H]1CN(C(=O)NCC(F)(F)F)C[C@@H]1c1cnc2cnc3[nH]ccc3n12 [Compound 1, (3S,4R)-3-ethyl-4-(3H-imidazo[1,2-a]pyrrolo[2,3-e]pyrazin-8-yl)-N-(2,2,2-trifluoroethyl)pyrrolidine-1-carboxamide]
CLint scaled at 1 μM [1]: 6.88 mL/min/kg
fraction unbound [2]: 0.82
fraction unbound [3]: 0.61
time-dependent inhibition of CYP2C9 (CYP2C9; human liver microsomes): No obvious time-dependent inhibition
inhibition of CYP2C9 (CYP2C9; up to 30 μM): did not inhibit; also recorded: not an inhibitor
phototoxicity potential [4]: negative
decrease in AUC in the presence of food ([5]; Substudy 2, 3 mg single dose): < 1%
AUC(0-t) ([5]; oral, 3 mg): 102 ng·h/mL
AUC(0-t) ([5]; oral, 6 mg): 159 ng·h/mL
AUC(0-t) ([5]; oral, 24 mg): 612 ng·h/mL
AUC(0-inf) ([5]; single oral 1 mg, mean ± SD): 30.1 ± 5.72 ng·h/mL
AUC(0-t) ([5]; single oral 1 mg, mean ± SD): 29.8 ± 5.78 ng·h/mL
AUC(0-t) ([5]; single oral 3 mg, mean ± SD): 102 ± 27.5 ng·h/mL
AUC(0-t) ([5]; single oral 6 mg, mean ± SD): 159 ± 37.5 ng·h/mL
AUC(0-t) ([5]; single oral 12 mg, mean ± SD): 329 ± 48.9 ng·h/mL
AUC(0-t) ([5]; single oral 24 mg, mean ± SD): 612 ± 78.6 ng·h/mL
AUC(0-t) ([5]; single oral 36 mg, mean ± SD): 909 ± 201 ng·h/mL
AUC(0-inf) ([5]; single oral 48 mg, mean ± SD): 1040 ± 174 ng·h/mL
AUC(0-t) ([5]; single oral 48 mg, mean ± SD): 1030 ± 174 ng·h/mL
fe, dose recovered unchanged in urine ([5]; single oral 1 mg, mean ± SD): 17.7 ± 9.58%
fe, dose recovered unchanged in urine ([5]; single oral 3 mg, mean ± SD): 15.6 ± 4.44%
fe, dose recovered unchanged in urine ([5]; single oral 6 mg, mean ± SD): 15.6 ± 3.49%
fe, dose recovered unchanged in urine ([5]; single oral 12 mg, mean ± SD): 19.9 ± 2.26%
fe, dose recovered unchanged in urine ([5]; single oral 24 mg, mean ± SD): 18.6 ± 3.08%
fe, dose recovered unchanged in urine ([5]; single oral 36 mg, mean ± SD): 20.8 ± 9.25%
fe, dose recovered unchanged in urine ([5]; single oral 48 mg, mean ± SD): 16.4 ± 5.48%
CL/F ([6]; Chinese, 18 mg BID, Day 14): 39.0 L/h
AUC12/dose ([6]; Chinese, 18 mg BID): 25.9 ng·h/mL/mg
Cmax/dose ([6]; Chinese, 18 mg BID): 6.57 ng/mL/mg
Ctrough/Dose ([6]; Chinese, 18 mg BID): 0.43 ng/mL/mg
AUC lower than previously observed in Western subjects ([6]; Japanese, 3 mg single dose): 14%
Cmax lower than previously observed in Western subjects ([6]; Japanese, 3 mg single dose): 22%
CL/F ([6]; Japanese, 18 mg BID, Day 14): 35.2 L/h
AUC12/dose ([6]; Japanese, 18 mg BID): 29.0 ng·h/mL/mg
Cmax/dose ([6]; Japanese, 18 mg BID): 7.08 ng/mL/mg
Ctrough/Dose ([6]; Japanese, 18 mg BID): 0.48 ng/mL/mg
AUC higher than previously observed in Western subjects [6, 7]: 16-18%
Cmax higher than previously observed in Western subjects [6, 7]: 9%
half-life ([6]; 6 mg, Japanese, single dose 6 mg, harmonic mean (pseudo % CV), not a robust estimate, read-out: t1/2 (converted)): 330 min
AUC ([6]; 18 mg, Chinese, 18 mg BID, Day 1, mean (% CV)): 410 ng·h/mL
AUC [6, 8]: 466 ng·h/mL
concentration at 14 day [6, 8]: 7.7 ng/mL
AUC ([6]; 18 mg, Japanese, 18 mg BID, Day 1, mean (% CV)): 440 ng·h/mL
half-life ([6]; 18 mg, Japanese, 18 mg BID, Day 14, harmonic mean (pseudo % CV), read-out: t1/2 (converted)): 571 min
AUC [6, 9]: 522 ng·h/mL
concentration at 14 day [6, 9]: 8.61 ng/mL
half-life ([6]; Japanese, Chinese, and Western healthy subjects, read-out: terminal t1/2): 420 to 570 min
AUC(0-t) ([6]; Japanese, single dose 3 mg): 87.9 ng·h/mL
AUC(0-t) ([6]; Japanese, single dose 6 mg): 185 ng·h/mL
AUC(0-t) ([6]; Japanese, single dose 24 mg): 722 ng·h/mL
dose-normalized AUC and Ctrough higher in Asians than Westerns ([6]; multiple BID dosing): approximately 20%
dose-normalized Cmax higher in Asians than Westerns ([6]; multiple BID dosing): approximately 40%
